These compounds were tested on AMPA receptor (assay: Suppressing action to calcium influx into nerve cells induced by AMPA). Conditions: Fura2-AM, stimulation with 2 μM AMPA, primary culture of rat embryo cerebral cortex nerve cells, 1 μM MK-801.
Type: cell-based
Text: Suppressing Action to Calcium Influx into Nerve Cells Induced by AMPA
The suppressing action of the compounds of the present invention to calcium influx into nerve cells induced by AMPA was investigated using the primary culture system of nerve cells of cerebral cortex of embryo of rat.
Cerebral cortex was cut out from the brain of rat of gestational 18 days and treated with trypsin and DNase to disperse the cells. The cells were flown by MEM containing 10% of serum, sown in a culture bottle and astrocytes were proliferated. The astrocytes were re-dispersed by trypsin and sown in a 96-well plate. After incubation for one week, it was confirmed that the astrocytes covered all over the bottom and then the nerve cells of cerebral cortex which was dispersed by the above method were sown thereupon. After incubation for 24 hours, the medium was changed, the incubation was carried out for one week and, after that, the medium was changed to that containing 1 μM of MK-801. Nerve cells which were incubated for not shorter than 8 to 10 days were used.
Calcium influx into the cells was measured using Fura2-AM which was a calcium-sensitive fluorescent dye. It was treated in a medium containing Fura2-AM for 1 hour, incorporated into the cells, exchanged to a Tyrode solution containing 1 μM MK-801 and stimulation was carried out using 2 μM AMPA. Change in the amount of calcium flown into the cells were measured as the change in the fluorescent intensity at the exciting wave length of 340/380 nm. […] As the control compound, GYKI52466 (Le Peillet, et al., Brain Res., 571, 115, 1992) was used.

| SMILES | IC50 |
| --- | --- |
| O=C1C(c2ccccc2)CC(c2ccccc2)=NN1c1ccccn1 (stereo not drawn) [Example 21, 4,6-Diphenyl-2-(2-pyridyl)-4,5-dihydro-3 (2H)-pyridazinone] | 500 nM |
| COc1ccccc1C1CC(c2ccccn2)=NN(c2ccccn2)C1=O (stereo not drawn) [Example 22, 4-(2-Methoxyphenyl)-2-(2-pyridyl)-6-(2-pyridyl)-4,5-dihydro-3 (2H)-pyridazinone] | 2700 nM |
| N#Cc1ccccc1-c1cc(-c2ccccn2)nn(-c2ccccc2)c1=O [Example 23, 4-(2-Cyanophenyl)-2-phenyl-6-(2-pyridyl)-3 (2H)-pyridazinone] | 100 nM |
| COc1ccccc1C1CC(c2cccnc2)=NN(c2ccccc2Br)C1=O (stereo not drawn) [Example 24, 2-(2-Bromophenyl)-4-(2-methoxyphenyl)-6-(3-pyridyl)-4,5-dihydro-3 (2H)-pyridazinone] | 60 nM |
| O=C1C(c2ccccc2Br)CC(c2ccccn2)=NN1c1ccccc1 (stereo not drawn) [Example 25, 4-(2-Bromophenyl)-2-phenyl-6-(2-pyridyl)-4,5-dihydro-3 (2H)-pyridazinone] | 200 nM |
| COc1ccccc1N1N=C(c2ccccn2)CC(c2ccccc2)C1=O (stereo not drawn) [Example 26, 2-(2-Methoxyphenyl)-4-phenyl-6-(2-pyridyl)-4,5-dihydro-3 (2H)-pyridazinone] | 300 nM |
| O=C1C(c2ccccc2)CC(c2ccccn2)=NN1c1ccccc1[N+](=O)[O-] (stereo not drawn) [Example 27, 4-Phenyl-2-(2-nitrophenyl)-6-(2-pyridyl)-4,5-dihydro-3 (2H)-pyridazinone] | 40 nM |
| O=C1C(c2ccccc2)CC(c2ccccn2)=NN1c1ccccc1F (stereo not drawn) [Example 28, 2-(2-Fluorophenyl)-4-phenyl-6-(2-pyridyl)-4,5-dihydro-3 (2H)-pyridazinone] | 100 nM |
| O=C1C(c2ccc(O)cc2)CC(c2ccccn2)=NN1c1ccccc1Br (stereo not drawn) [Example 30, 2-(2-Bromophenyl)-4-(4-hydroxyphenyl)-6-(2-pyridyl)-4,5-dihydro-3 (2H)-pyridazinone] | 200 nM |
| O=c1c(-c2ccccn2)cc(-c2ccccc2O)nn1-c1ccccc1Br [Example 31, 2-(2-Bromophenyl)-6-(2-hydroxyphenyl)-4-(2-pyridyl)-3 (2H)-pyridazinone] | 900 nM |
| O=c1c(-c2ccccc2O)cc(-c2ccccn2)nn1-c1ccccc1 [Example 32, 4-(2-Hydroxyphenyl)-2-phenyl-6-(2-pyridyl)-3 (2H)-pyridazinone] | 100 nM |
| O=C1C(c2ccccc2O)CC(c2ccccn2)=NN1c1ccccc1 (stereo not drawn) [Example 33, 4-(2-Hydroxyphenyl)-2-phenyl-6-(2-pyridyl)-4,5-dihydro-3 (2H)-pyridazinone] | 70 nM |
| O=C1C(c2ccccc2O)CC(c2cccnc2)=NN1c1ccccc1Br (stereo not drawn) [Example 34, 2-(2-Bromophenyl)-4-(2-hydroxyphenyl)-6-(3-pyridyl)-4,5-dihydro-3 (2H)-pyridazinone] | 300 nM |
| O=c1c(-c2cccc(OCc3ccccn3)c2)cc(-c2ccccn2)nn1-c1ccccc1Br [Example 37, 2-(2-Bromophenyl)-4-[3-(2-picolyloxyphenyl)]-6-(2-pyridyl)-3 (2H)-pyridazinone] | 100 nM |
| O=C1C(c2ccccc2OS(=O)(=O)C(F)(F)F)CC(c2ccccn2)=NN1c1ccccc1 (stereo not drawn) [Example 38, 2-Phenyl-6-(2-pyridyl)-4-(2-trifluoromethylsulfonyloxyphenyl)-4,5-dihydro-3 (2H)-pyridazinone] | 400 nM |
| COc1ccccc1C1CC(c2ccccn2)=NN(c2ccccc2C#N)C1=O (stereo not drawn) [Example 39, 2-(2-Cyanophenyl)-4-(2-methoxyphenyl)-6-(2-pyridyl)-4,5-dihydro-3 (2H)-pyridazinone] | 50 nM |
| COc1ccccc1-c1cc(-c2ccccn2)nn(-c2ccccc2C#N)c1=O [Example 40, 2-(2-Cyanophenyl)-4-(2-methoxyphenyl)-6-(2-pyridyl)-3 (2H)-pyridazinone] | 100 nM |
| N#Cc1ccccc1N1N=C(c2ccccn2)CC(c2ccccc2O)C1=O (stereo not drawn) [Example 41, 2-(2-Cyanophenyl)-4-(2-hydroxyphenyl)-6-(2-pyridyl)-4,5-dihydro-3 (2H)-pyridazinone] | 30 nM |

From patent publication US20030225081A1, “Pyridazinones and triazinones and medicinal use thereof” (priority 2000, published 2003)
